Test results as given in ChEMBL document CHEMBL3046692, “Antifeedant effect of commercial chemicals and plant extracts against Schistocerca americana (Orthoptera: Acrididae) and Diaprepes abbreviatus (Coleoptera: Curculionidae)” (2011).
Active and inactive are the calls of the source. No cut-off for these calls is given here.

Key:
Diaprepes abbreviatus [1] = assay: Antifeedant activity against Diaprepes abbreviatus in compound treated healthy romaine lettuce plants assessed as area consumed from leaf disk at 5.6 ml/l by No-choice tests (1.40 +/- 0.1 cm'2); format: functional
Diaprepes abbreviatus [2] = assay: Antifeedant activity against Diaprepes abbreviatus in compound treated healthy romaine lettuce plants assessed as area consumed from leaf disk at 5.6 ml/l by choice tests (1.45 +/- 0.1 cm'2); format: functional
Schistocerca americana [3] = assay: Antifeedant activity against Schistocerca americana in compound treated healthy romaine lettuce plants assessed as area consumed from leaf disk at 5.6 ml/l by No-choice tests (3.10 +/- 0.1 cm'2); format: functional
Schistocerca americana [4] = assay: Antifeedant activity against Schistocerca americana in compound treated healthy romaine lettuce plants assessed as area consumed from leaf disk at 5.6 ml/l by choice tests (2.62 +/- 0.1 cm'2); format: functional
Schistocerca americana [5] = assay: Antifeedant activity against Schistocerca americana in compound treated Citrus paradisi MacFad (Rutaceae) potted plants assessed as area consumed from leaf disk measured under different 12 hr sunlight exposure at 18 g/l by No-choice tests; format: functional, organism-based
Schistocerca americana [6] = assay: Antifeedant activity against Schistocerca americana in compound treated Citrus paradisi MacFad (Rutaceae) potted plants assessed as area consumed from leaf disk measured under different 8 hr sunlight exposure at 18 g/l by No-choice tests; format: functional, organism-based
Schistocerca americana [7] = assay: Antifeedant activity against Schistocerca americana in compound treated Citrus paradisi MacFad (Rutaceae) potted plants assessed as area consumed from leaf disk measured under different 4 hr sunlight exposure at 18 g/l by No-choice tests; format: functional, organism-based
Schistocerca americana [8] = assay: Antifeedant activity against Schistocerca americana in compound treated Citrus paradisi MacFad (Rutaceae) potted plants assessed as area consumed from leaf disk measured under 4 hr sunlight exposure at 18 g/l by No-choice tests; format: functional, organism-based
Schistocerca americana [9] = assay: Antifeedant activity against Schistocerca americana in compound treated Citrus paradisi MacFad (Rutaceae) potted plants assessed as area consumed from leaf disk measured under 4 hr sunlight exposure at 5.6 ml/l by No-choice tests; format: functional, organism-based
Schistocerca americana [10] = assay: Antifeedant activity against Schistocerca americana in compound treated Citrus paradisi MacFad (Rutaceae) potted plants assessed as area consumed from leaf disk measured under 8 hr sunlight exposure at 18 g/l by No-choice tests; format: functional, organism-based
Schistocerca americana [11] = assay: Antifeedant activity against Schistocerca americana in compound treated Citrus paradisi MacFad (Rutaceae) potted plants assessed as area consumed from leaf disk measured under 8 hr sunlight exposure at 5.6 ml/l by No-choice tests; format: functional, organism-based
Schistocerca americana [12] = assay: Antifeedant activity against Schistocerca americana in compound treated healthy romaine lettuce plants assessed as area consumed from leaf disk at 31.3 ml/l by choice tests (1.79 +/- 0.2 cm'2); format: functional
Diaprepes abbreviatus [13] = assay: Antifeedant activity against Diaprepes abbreviatus in compound treated healthy romaine lettuce plants assessed as area consumed from leaf disk at 31.3 ml/l by choice tests (1.39 +/- 0.1 cm'2); format: functional
Diaprepes abbreviatus [14] = assay: Antifeedant activity against Diaprepes abbreviatus in compound treated healthy romaine lettuce plants assessed as area consumed from leaf disk at 48 g/l by No-choice tests (2.51 +/- 0.2 cm'2); format: functional
Diaprepes abbreviatus [15] = assay: Antifeedant activity against Diaprepes abbreviatus in compound treated healthy romaine lettuce plants assessed as area consumed from leaf disk at 48 g/l by choice tests (1.47 +/- 0.1 cm'2); format: functional
Schistocerca americana [16] = assay: Antifeedant activity against Schistocerca americana in compound treated healthy romaine lettuce plants assessed as area consumed from leaf disk at 48 g/l by choice tests (1.88 +/- 0.2 cm'2); format: functional
Diaprepes abbreviatus [17] = assay: Antifeedant activity against Diaprepes abbreviatus in compound treated Citrus paradisi MacFad (Rutaceae) potted plants assessed as reduction in leaf consumption measured under 12 hr sunlight exposure at 5.6 ml/l by No-choice tests; format: functional, organism-based
Diaprepes abbreviatus [18] = assay: Antifeedant activity against Diaprepes abbreviatus in compound treated Citrus paradisi MacFad (Rutaceae) potted plants assessed as reduction in leaf consumption measured under 8 hr sunlight exposure at 5.6 ml/l by No-choice tests; format: functional, organism-based
Diaprepes abbreviatus [19] = assay: Antifeedant activity against Diaprepes abbreviatus in compound treated Citrus paradisi MacFad (Rutaceae) potted plants assessed as reduction in leaf consumption measured under 4 hr sunlight exposure at 5.6 ml/l by No-choice tests; format: functional, organism-based
Diaprepes abbreviatus [20] = assay: Antifeedant activity against Diaprepes abbreviatus in compound treated healthy romaine lettuce plants assessed as area consumed from leaf disk at 18 g/l by No-choice tests (2.48 +/- 0.1 cm'2); format: functional
Diaprepes abbreviatus [21] = assay: Antifeedant activity against Diaprepes abbreviatus in compound treated healthy romaine lettuce plants assessed as area consumed from leaf disk at 18 g/l by choice tests (1.19 +/- 0.1 cm'2); format: functional
Schistocerca americana [22] = assay: Antifeedant activity against Schistocerca americana in compound treated healthy romaine lettuce plants assessed as area consumed from leaf disk at 18 g/l by No-choice tests (3.14 +/- 0.1 cm'2); format: functional
Schistocerca americana [23] = assay: Antifeedant activity against Schistocerca americana in compound treated healthy romaine lettuce plants assessed as area consumed from leaf disk at 18 g/l by choice tests (2.28 +/- 0.1 cm'2); format: functional
Diaprepes abbreviatus [24] = assay: Antifeedant activity against Diaprepes abbreviatus in compound treated Citrus paradisi MacFad (Rutaceae) potted plants assessed as reduction in leaf consumption measured under 12 hr sunlight exposure at 18 g/l by No-choice tests; format: functional, organism-based
Diaprepes abbreviatus [25] = assay: Antifeedant activity against Diaprepes abbreviatus in compound treated Citrus paradisi MacFad (Rutaceae) potted plants assessed as reduction in leaf consumption measured under 8 hr sunlight exposure at 18 g/l by No-choice tests; format: functional, organism-based
Diaprepes abbreviatus [26] = assay: Antifeedant activity against Diaprepes abbreviatus in compound treated Citrus paradisi MacFad (Rutaceae) potted plants assessed as reduction in leaf consumption measured under 4 hr sunlight exposure at 18 g/l by No-choice tests; format: functional, organism-based

**Q.** With `C/C=C(\C)C(=O)O[C@H]1C[C@@H](OC(C)=O)[C@@]2(C(=O)OC)CO[C@H]3[C@@H](O)[C@@](C)([C@]45O[C@@]4(C)[C@@H]4C[C@H]5O[C@@H]5OC=C[C@@]54O)[C@H]4[C@]1(CO[C@]4(O)C(=O)OC)[C@@H]32` [AZADIRACHTIN A] as the compound, how does the Activity (Diaprepes abbreviatus [1]) read?
**A.** 1.8 cm2

**Q.** And the Activity (Diaprepes abbreviatus [2])?
**A.** 0.74 cm2

**Q.** And the Activity (Schistocerca americana [3])?
**A.** 0.29 cm2

**Q.** And the Activity (Schistocerca americana [4])?
**A.** 0.4 cm2

**Q.** And the Activity (Schistocerca americana [5])?
**A.** inactive

**Q.** What about the Activity (Schistocerca americana [6]) of the same compound?
**A.** inactive

**Q.** What about the Activity (Schistocerca americana [7]) of the same compound?
**A.** inactive

**Q.** What about the Activity (Schistocerca americana [8]) of the same compound?
**A.** inactive

**Q.** What about the Activity (Schistocerca americana [9]) of the same compound?
**A.** inactive

**Q.** And the Activity (Schistocerca americana [10])?
**A.** Active

**Q.** What about the Activity (Schistocerca americana [11]) of the same compound?
**A.** Active

**Q.** Which results are given for `COc1cc(CNC(=O)CCCC/C=C/C(C)C)ccc1O` [CAPSAICIN]?
**A.** Activity (Schistocerca americana [12]): 1.08 cm2; Activity (Diaprepes abbreviatus [13]): 1.02 cm2

**Q.** How did the Activity (Diaprepes abbreviatus [14]) turn out when `C=C(C)[C@H]1Cc2c(ccc3c2O[C@@H]2COc4cc(OC)c(OC)cc4[C@@H]2C3=O)O1` [ROTENONE] was run?
**A.** 2.42 cm2

**Q.** And the Activity (Diaprepes abbreviatus [15])?
**A.** 0.24 cm2

**Q.** And the Activity (Schistocerca americana [16])?
**A.** 1.64 cm2

**Q.** What about the Activity (Diaprepes abbreviatus [17]) of the same compound?
**A.** inactive

**Q.** And the Activity (Diaprepes abbreviatus [18])?
**A.** inactive

**Q.** And the Activity (Diaprepes abbreviatus [19])?
**A.** inactive

**Q.** With `CC(C)[C@@]1(O)[C@@H](OC(=O)c2cc[nH]c2)[C@@]2(O)[C@]3(C)C[C@@]4(O)O[C@@]5([C@H](O)[C@@H](C)CC[C@]35O)[C@@]2(O)[C@@]41C` [RYANODINE] as the compound, how does the Activity (Diaprepes abbreviatus [20]) read?
**A.** 1.46 cm2

**Q.** And the Activity (Diaprepes abbreviatus [21])?
**A.** 0.48 cm2

**Q.** What about the Activity (Schistocerca americana [22]) of the same compound?
**A.** 2.35 cm2

**Q.** What about the Activity (Schistocerca americana [23]) of the same compound?
**A.** 0.76 cm2

**Q.** What about the Activity (Diaprepes abbreviatus [24]) of the same compound?
**A.** inactive

**Q.** What about the Activity (Diaprepes abbreviatus [25]) of the same compound?
**A.** inactive

**Q.** What about the Activity (Diaprepes abbreviatus [26]) of the same compound?
**A.** inactive

**Q.** And the Activity (Schistocerca americana [5])?
**A.** inactive

**Q.** What about the Activity (Schistocerca americana [6]) of the same compound?
**A.** inactive

**Q.** What about the Activity (Schistocerca americana [7]) of the same compound?
**A.** inactive
